Measurements published in patent US9309248B2, “Azaindolines” (Hoffmann-La Roche Inc., priority 2012, dated 2016).

Key:
[1] = molecular target: T1, BIR3 domain of XIAP (Homo sapiens, UniProt P98170); assay: TR-FRET assay for BIR3 (inhibition of binding of XIAP BIR3 domain to SMAC-derived Peptide A); settings: 6x Histidine-tagged BIR3 domain (amino acids 241-356 of XIAP) 10 nM, Peptide A 20 nM
T1 construct: BIR3 domain, corresponding to amino acids 241-356 of XIAP
Method in brief: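 His6-tagged XIAP BIR3 (aa 241-356, 10 nM) was mixed with 20 nM biotinylated SMAC-derived peptide in 50 mM Tris-Cl pH 7.5, 100 mM NaCl, 1 mM DTT, 0.1 mg/mL BSA and incubated 45 min at 37 °C. Eu-streptavidin (1.5 nM) and APC anti-His (15 nM) were added, with TR-FRET read 1 h later at RT. IC50 came from % inhibition over 10 serial concentrations.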

[2] = molecular target: T2, BIR2 domain of XIAP (Homo sapiens, UniProt P98170, C202A/C213G); assay: TR-FRET assay for BIR2 (inhibition of binding of XIAP BIR2 domain to SMAC-derived Peptide A); settings: 6x Histidine-tagged BIR2 domain (amino acids 124-240 of XIAP) 10 nM, Peptide A 20 nM
T2 construct: 6× Histidine-tagged BIR2 domain, corresponding to amino acids 124-240 of XIAP
T2 sequence (P98170 with tags, fused parts or gaps C202A/C213G): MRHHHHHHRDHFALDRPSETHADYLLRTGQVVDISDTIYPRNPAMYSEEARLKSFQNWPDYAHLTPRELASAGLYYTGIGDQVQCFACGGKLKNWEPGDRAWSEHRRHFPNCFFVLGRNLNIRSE
Method in brief: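 Inhibition of binding of the XIAP BIR2 domain (C202A/C213G) to biotinylated SMAC-derived Peptide A was measured. TR-FRET signal was read after 1 h at room temperature.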

T1 sequence (P98170 with tags, fused parts or gaps): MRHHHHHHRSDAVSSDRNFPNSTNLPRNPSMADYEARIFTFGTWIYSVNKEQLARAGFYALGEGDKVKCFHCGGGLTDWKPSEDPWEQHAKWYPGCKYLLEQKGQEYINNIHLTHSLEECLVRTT

Row | IC50 [1] | IC50 [2] | Compound
1 | > 54.8 µM | 266 nM | CC(C)[C@H](NC(=O)[C@H](C)NCCO)C(=O)N1c2ncccc2C[C@H]1C(=O)Nc1ccccc1 [Example 89, (S)-1-{(S)-2-[(S)-2-(2-Hydroxy-ethylamino)-propionylamino]-3-methyl-butyryl}-2,3-dihydro-1H-pyrrolo[2,3-b]pyridine-2-carboxylic acid phenylamide]
2 | > 54.8 µM | 1610 nM | CC[C@H](NCCO)C(=O)N[C@H](C(=O)N1c2ncccc2C[C@H]1C(=O)Nc1ccccc1)C(C)C [Example 90, (S)-1-{(S)-2-[(S)-2-(2-Hydroxy-ethylamino)-butyrylamino]-3-methyl-butyryl}-2,3-dihydro-1H-pyrrolo[2,3-b]pyridine-2-carboxylic acid phenylamide]
3 | > 54.8 µM | 155 nM | C[C@H](NCCO)C(=O)N[C@H](C(=O)N1c2ncccc2C[C@H]1C(=O)Nc1ccccc1)C1CCCCC1 [Example 91, (S)-1-{(S)-2-Cyclohexyl-2-[(S)-2-(2-hydroxy-ethylamino)-propionylamino]-acetyl}-2,3-dihydro-1H-pyrrolo[2,3-b]pyridine-2-carboxylic acid phenylamide]
4 | > 54.8 µM | 2570 nM | CC(C)[C@H](NC(=O)[C@H](C)NCCS(C)(=O)=O)C(=O)N1c2ncccc2C[C@H]1C(=O)Nc1c(F)cccc1F [Example 92, (S)-1-{(S)-2-[(S)-2-(2-Methanesulfonyl-ethylamino)-propionylamino]-3-methyl-butyryl}-2,3-dihydro-1H-pyrrolo[2,3-b]pyridine-2-carboxylic acid (2,6-difluoro-phenyl)-amide]
5 | > 54.8 µM | 9.79 nM | CN[C@@H](C)C(=O)N[C@H](C(=O)N1c2ncccc2C[C@H]1C(=O)Nc1c(F)cccc1F)C1CCOCC1 [Example 94, (S)-1-[(S)-2-((S)-2-Methylamino-propionylamino)-2-(tetrahydro-pyran-4-yl)-acetyl]-2,3-dihydro-1H-pyrrolo[2,3-b]pyridine-2-carboxylic acid (2,6-difluoro-phenyl)-amide]
6 | > 54.8 µM | 607 nM | CN[C@@H](C)C(=O)N[C@H](C(=O)N1c2ncccc2C[C@@H]1C(=O)Nc1c(F)cccc1F)C1CCOCC1 [Example 95, (R)-1-[(S)-2-((S)-2-Methylamino-propionylamino)-2-(tetrahydro-pyran-4-yl)-acetyl]-2,3-dihydro-1H-pyrrolo[2,3-b]pyridine-2-carboxylic acid (2,6-difluoro-phenyl)-amide]
7 | > 54.8 µM | 108 nM | CN[C@@H](C)C(=O)N[C@@H](CCS(C)(=O)=O)C(=O)N1c2ncccc2C[C@H]1C(=O)Nc1ccccc1 [Example 96, 1-[(S)-4-Methanesulfonyl-2-((S)-2-methylamino-propionylamino)-butyryl]-2,3-dihydro-1H-pyrrolo[2,3-b]pyridine-2-carboxylic acid phenylamide]
8 | > 54.8 µM | 3060 nM | CN[C@@H](C)C(=O)N[C@@H](CCS(C)(=O)=O)C(=O)N1c2ncccc2C[C@@H]1C(=O)Nc1ccccc1 [Example 97, 1-[(S)-4-Methanesulfonyl-2-((S)-2-methylamino-propionylamino)-butyryl]-2,3-dihydro-1H-pyrrolo[2,3-b]pyridine-2-carboxylic acid phenylamide]
9 | > 54.8 µM | 17 nM | CN[C@@H](C)C(=O)N[C@H](C(=O)N1c2ncccc2C(C)C1C(=O)Nc1c(F)cccc1F)C(C)C (stereo partly drawn) [Example 98, 3-Methyl-1-[(S)-3-methyl-2-((S)-2-methylamino-propionylamino)-butyryl]-2,3-dihydro-1H-pyrrolo[2,3-b]pyridine-2-carboxylic acid (2,6-difluoro-phenyl)-amide]
10 | > 54.8 µM | 11.6 nM | CN[C@@H](C)C(=O)N[C@H](C(=O)N1c2ncccc2C[C@H]1C(=O)Nc1c(C)cccc1F)C1CCOCC1 [Example 99, (S)-1-[(S)-2-((S)-2-Methylamino-propionylamino)-2-(tetrahydro-pyran-4-yl)-acetyl]-2,3-dihydro-1H-pyrrolo[2,3-b]pyridine-2-carboxylic acid (2-fluoro-6-methyl-phenyl)-amide]
